Test results taken from publication PMC10888562 (International Journal of Molecular Sciences, 2024).

Experiments:
A431 skin = assay: MTT cell viability assay (GI50), A431; assay type: cell-based, human; settings: for GI50: A431 skin, MTT; for SCI: GI50 (MCF10A)/GI50 (A431)
Du145 prostate = assay: MTT cell viability assay (GI50), Du145; assay type: cell-based, human; settings: for GI50: MTT; for SCI: GI50 (MCF10A)/GI50 (Du145); for fold more potent than carboplatin / fold more potent than cisplatin / fold more potent than oxaliplatin: GI50 ratio
BE2-C neuroblastoma = assay: MTT cell viability assay (GI50), BE2-C; assay type: cell-based, human; settings: for GI50: BE2-C neuroblastoma, MTT; for SCI: GI50 (MCF10A)/GI50 (BE2-C)
SJ-G2 glioblastoma = assay: MTT cell viability assay (GI50), SJ-G2; assay type: cell-based, human; settings: for SCI: GI50 (MCF10A)/GI50 (SJ-G2); for GI50: SJ-G2 glioblastoma, MTT
MIA pancreas = assay: MTT cell viability assay (GI50), MIA; assay type: cell-based, human; settings: for SCI: GI50 (MCF10A)/GI50 (MIA); for GI50: MIA pancreas, MTT
A2780 ovarian = assay: MTT cell viability assay (GI50), A2780; assay type: cell-based, human; settings: for GI50: A2780 ovarian, MTT; for SCI: GI50 (MCF10A)/GI50 (A2780)
[1] = test system: cisplatin-resistant ADDP ovarian variant; assay: MTT cell viability assay (GI50), ADDP; assay type: cell-based, human; settings: for SCI: GI50 (MCF10A)/GI50 (ADDP); for GI50: cisplatin-resistant ADDP ovarian variant, MTT
MCF-7 breast = assay: MTT cell viability assay (GI50), MCF-7; assay type: cell-based, human; settings: for SCI: GI50 (MCF10A)/GI50 (MCF-7); for GI50: MCF-7 breast, MTT
[2] = test system: multiple human cell lines; assay: MTT cell viability assay, all cell lines (mean/range of GI50); assay type: cell-based; settings: for fold decrease of average GI50 relative to the platinum(IV) scaffold: average GI50 of scaffold vs 5B3A derivative, all cell lines; for GI50: average over all cell lines
HT29 colon cells = assay: TMRE mitochondrial membrane potential (MtMP) assay; assay type: cell-based, human; settings: GI50 drug concentration (FCCP 20 μM)
Procedure: This was achieved by determining if the overproduction of ROS induced by these complexes impacts mitochondrial activity by altering MtMP. Briefly, there is evidence showing a strong correlation between increased levels of ROS and mitochondrial impairment. […] The MtMP changes recorded are measured as RFU. […] To investigate the MtMP changes in HT29 treated cells, a TMRE-MtMP Assay Kit (Abcam, Cambridge, MA, USA) was used, as previously described. In 96-well plates, 25,000 cells/mL of HT29 colon cells in DMEM were seeded. Cells were treated with a GI50 drug concentration for each complex. At 24, 48 or 72 h, cells were washed with PBS and stained with tetramethylrhodamine, ethyl ester (TMRE) (1 μM) and incubated for 30 min. TMRE was then removed, and cells were then re-washed with PBS (0.2% BSA), after which phenol red free media was added. The plates were directly scanned to measure fluorescence (expressed as RFU), using the Glo-Max®-Multimode microplate reader (Promega Corporation, Alexandra, VIC, Australia) at an excitation/emission of 549/575 nm. For the positive control, 20 μM carbonyl cyanide 4-(trifluoromethoxy) phenylhydrazone (FCCP)) was added to the cells and incubated for 10 min. The cells were washed with PBS (0.2% BSA) and stained with TMRE (1 μM) for 30 min; this was removed, and phenol red free media was added, and the final solution was scanned as mentioned above.

[3] = test system: histone deacetylase (HDAC); assay: Fluorometric HDAC activity assay on extracts of treated HT29 cells; assay type: cell-based, human; settings: HT29 colon cells treated 72 h at GI50 concentration; lower RFU = decline in HDAC activity; HT29 extract control 5154 ± 40
Procedure: All values are expressed as RFU.
To study the HDAC activity in HT29 treated cells, a Fluorometric HDAC Activity Assay Kit ab156064 (Abcam, Cambridge, MA, USA) was used and all sample preparations were made based on the manufacturer’s protocol. A total of 10^6 cells/mL of HT29 cells were seeded in DMEM with serum deprivation for 18 h to synchronise the cells. […] Cells were then washed with cold PBS and resuspended in lysis buffer (10 mM Tris HCl (pH 7.5), 10 mM NaCl, 15 mM MgCl2, 250 mM sucrose, 0.5% NP-40 and 0.1 mM EGTA) and lysed on ice for 20 min. Cells were centrifuged through 4 mL of sucrose cushion (30% sucrose, 10mM Tris HCl (pH 7.5), 10 mM NaCl and 3mM MgCl2) at 1300× g for 10 min at 4 °C. Supernatant was discarded and the pellet was washed and resuspended in extraction buffer (50 mM HEPES-KOH (pH 7.5), 420 mM NaCl, 0.5 mM EDTA 2Na, 0.1 mM EGTA and 10% glycerol) and then sonicated for 30 s. Nuclei were lysed for 30 min on ice and centrifuged at 20,000× g for 30 min. The supernatant was collected, and the samples were prepared for the fluorometric assay according to the manufacturer’s protocol (Histone Deacetylase (HDAC) Activity Assay Fluorometric Kit ab156064, Abcam). The changes in the relative fluorescence intensity (expressed as RFU) were recorded each minute over 60 min using the Glo-Max®-Multimode microplate reader (Promega Corporation, Alexandra, VIC, Australia) at an excitation/emission of 355/460 nm.

[4] = Lipophilicity by analytical HPLC (log kw); assay type: physicochemical
From the text: The order of complexes by increasing lipophilicity is P-5B3A < 5-5B3A < 56-5B3A (Table 2 and Figure S27). It can be deduced that increasing methylation on the heterocyclic ligand increased lipophilicity. This trend agrees with published data. The determined log kw values are consistent and within the range of the log kw values determined for similar complexes reported in the literature.
Lipophilicity measurements were completed via analytical HPLC, as previously reported.

[5] = Stability in PBS monitored by analytical HPLC; assay type: physicochemical; settings: PBS pH ~7.4, ~10 mM, 37 °C, one week, HPLC at 254 nm
Procedure: The stability of P-5B3A, 5-5B3A and 56-5B3A was monitored via analytical HPLC.
The stability of P-5B3A, 5-5B3A and 56-5B3A were measured at 254 nm. Each complex was incubated in aqueous phosphate-buffered saline (PBS) solution (pH ~7.4) (total sample concentration, ~10 mM) at 37 °C for one week. Analytical HPLC was utilised to monitor the experiments.

Solubility in d.i.H2O = assay type: physicochemical; settings: room temperature
Procedure: The solubility of P-5B3A, 5-5B3A and 56-5B3A was tested in d.i.H2O at room temperature. Small aliquots of d.i.H2O were titrated into an Eppendorf tube containing 1 mg of each complex until full dissolution. For every titration, each sample solution was vortexed and sonicated.

[Pt^IV(phen)(SS-DACH)(5B3A)(OH)]^2+ [P-5B3A]
GI50 (A431 skin): 1200 ± 100 nM
SCI (A431 skin): 0.23
GI50 (Du145 prostate; Du145 prostate): 190 ± 23 nM
SCI (Du145 prostate): 1.47
GI50 (BE2-C neuroblastoma): 13000 nM
SCI (BE2-C neuroblastoma): 0.02
SCI (SJ-G2 glioblastoma): 0.22
GI50 (SJ-G2 glioblastoma): 1300 ± 200 nM
SCI (MIA pancreas): 0.90
GI50 (MIA pancreas): 310 ± 26 nM
GI50 (A2780 ovarian): 470 ± 18 nM
SCI (A2780 ovarian): 0.60
fold more potent than carboplatin ([1]; ADDP, GI50 ratio): 152 fold
fold more potent than cisplatin ([1]; ADDP, GI50 ratio): at least 85 fold
SCI [1]: 0.85
GI50 [1]: 330 ± 8.8 nM
SCI (MCF-7 breast): 0.05
GI50 (MCF-7 breast): 5400 ± 2800 nM
fold larger average GI50 than 5-5B3A ([2]; average GI50, all cell lines): 20 fold
fold larger average GI50 than 56-5B3A ([2]; average GI50, all cell lines): 50 fold
fold decrease of average GI50 relative to the platinum(IV) scaffold [2]: ~1.6 fold
GI50 [2]: 2080 ± 703 nM
MtMP Changes (HT29 colon cells; 24 h, control 542 ± 4): 332 ± 7 RFU
MtMP Changes (HT29 colon cells; 48 h, control 507 ± 11): 317 ± 7 RFU
MtMP Changes (HT29 colon cells; 72 h, control 449 ± 10): 263 ± 5 RFU
HDAC Inhibition at 72 h [3]: 3620 ± 35 RFU
log kw Values [4]: 1.82
Stability [5]: adequately stable in aqueous solution for up to 1 week
Solubility (Solubility in d.i.H2O): 7000 µg/mL

N.N.[Cl][Pt][Cl] [Cisplatin, cis-diammineplatinum(II) dichloride]
SCI (A431 skin): 2.17
SCI (BE2-C neuroblastoma): 2.74
SCI (SJ-G2 glioblastoma): 13.00
SCI (MIA pancreas): 0.69
SCI (A2780 ovarian): 5.20
SCI [1]: 0.19
SCI (MCF-7 breast): 0.80
MtMP Changes (HT29 colon cells; 24 h, control 542 ± 4): 232 ± 4 RFU
MtMP Changes (HT29 colon cells; 48 h, control 507 ± 11): 230 ± 4 RFU
MtMP Changes (HT29 colon cells; 72 h, control 449 ± 10): 192 ± 7 RFU
HDAC Inhibition at 72 h [3]: 3698 ± 59 RFU

[Pt^IV(5,6-Me2phen)(SS-DACH)(5B3A)(OH)]^2+ [56-5B3A]
GI50 (A431 skin): 33 ± 8.4 nM
SCI (A431 skin): 0.10
fold more potent than 56MESS (Du145 prostate; Du145 prostate): 0.3 fold
fold more potent than carboplatin (Du145 prostate; Du145 prostate): ≥ 12,500 fold
fold more potent than cisplatin (Du145 prostate; Du145 prostate): 1000 fold
fold more potent than oxaliplatin (Du145 prostate; Du145 prostate): at least 2400 fold
GI50 (Du145 prostate; Du145 prostate): 1.2 ± 0.6 nM
SCI (Du145 prostate): 2.75
GI50 (BE2-C neuroblastoma): 150 ± 24 nM
SCI (BE2-C neuroblastoma): 0.02
SCI (SJ-G2 glioblastoma): 0.03
GI50 (SJ-G2 glioblastoma): 110 ± 20 nM
SCI (MIA pancreas): 0.28
GI50 (MIA pancreas): 12 ± 3 nM
GI50 (A2780 ovarian): 18 ± 6.1 nM
SCI (A2780 ovarian): 0.18
fold more potent than 56MESS ([1]; ADDP): 0.5 fold
SCI [1]: 0.55
GI50 [1]: 6 ± 3 nM
SCI (MCF-7 breast): 0.05
GI50 (MCF-7 breast): 68 ± 10 nM
fold decrease of average GI50 relative to the platinum(IV) scaffold [2]: 3.6 fold
GI50 [2]: 42 ± 7 nM
MtMP Changes (HT29 colon cells; 24 h, control 542 ± 4): 321 ± 11 RFU
MtMP Changes (HT29 colon cells; 48 h, control 507 ± 11): 267 ± 8 RFU
MtMP Changes (HT29 colon cells; 72 h, control 449 ± 10): 148 ± 7 RFU
HDAC Inhibition at 72 h [3]: 2550 ± 57 RFU
log kw Values [4]: 2.11
Stability [5]: adequately stable in aqueous solution for up to 1 week
Solubility (Solubility in d.i.H2O): 4000 µg/mL

[Pt^IV(5-Mephen)(SS-DACH)(5B3A)(OH)]^2+ [5-5B3A]
GI50 (A431 skin): 93 ± 8 nM
SCI (A431 skin): 0.20
fold more potent than carboplatin (Du145 prostate; Du145 prostate): 1500 fold
fold more potent than cisplatin (Du145 prostate; Du145 prostate): 120 fold
fold more potent than oxaliplatin (Du145 prostate; Du145 prostate): 290 fold
GI50 (Du145 prostate; Du145 prostate): 10 ± 2 nM
SCI (Du145 prostate): 1.90
GI50 (BE2-C neuroblastoma): 340 ± 40 nM
SCI (BE2-C neuroblastoma): 0.06
SCI (SJ-G2 glioblastoma): 0.10
GI50 (SJ-G2 glioblastoma): 200 ± 40 nM
SCI (MIA pancreas): 0.61
GI50 (MIA pancreas): 31 ± 3 nM
GI50 (A2780 ovarian): 42 ± 4 nM
SCI (A2780 ovarian): 0.45
fold more potent than cisplatin ([1]; ADDP, GI50 ratio): ~1220 fold
SCI [1]: 0.83
GI50 [1]: 23 ± 0.88 nM
SCI (MCF-7 breast): 0.10
GI50 (MCF-7 breast): 200 ± 21 nM
fold lower average GI50 than 5MESS ([2]; average GI50, all cell lines): approximately 0.9 fold
fold decrease of average GI50 relative to the platinum(IV) scaffold [2]: 4 fold
GI50 [2]: 104 ± 12 nM
MtMP Changes (HT29 colon cells; 24 h, control 542 ± 4): 324 ± 9 RFU
MtMP Changes (HT29 colon cells; 48 h, control 507 ± 11): 280 ± 12 RFU
MtMP Changes (HT29 colon cells; 72 h, control 449 ± 10): 184 ± 4 RFU
HDAC Inhibition at 72 h [3]: 2791 ± 72 RFU
log kw Values [4]: 1.91
Stability [5]: adequately stable in aqueous solution for up to 1 week
Solubility (Solubility in d.i.H2O): 6000 µg/mL
